Assay results as given in BindingDB's records for PubMed 2746503 (Universit&Eacute, 1989).
Where “and” joins values, the source holds several entries; their conditions need not be identical. Equal entries are not always repeated.

Tests used:
[1] = target: T1, Muscarinic acetylcholine receptor M2 (Sus scrofa, UniProt P06199)
T1 sequence (P06199 whole entry): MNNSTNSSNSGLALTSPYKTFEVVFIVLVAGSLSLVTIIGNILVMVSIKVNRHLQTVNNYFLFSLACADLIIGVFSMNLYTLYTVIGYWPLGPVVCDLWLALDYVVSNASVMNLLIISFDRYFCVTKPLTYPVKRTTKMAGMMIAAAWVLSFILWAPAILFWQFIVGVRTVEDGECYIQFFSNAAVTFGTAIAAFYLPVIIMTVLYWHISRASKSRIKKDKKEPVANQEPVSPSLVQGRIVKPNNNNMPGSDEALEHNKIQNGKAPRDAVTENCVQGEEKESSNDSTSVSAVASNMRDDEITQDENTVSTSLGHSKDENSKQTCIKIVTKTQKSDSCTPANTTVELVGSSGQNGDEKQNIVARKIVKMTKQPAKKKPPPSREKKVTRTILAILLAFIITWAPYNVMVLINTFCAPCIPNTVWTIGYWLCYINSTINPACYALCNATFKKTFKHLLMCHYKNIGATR

[2] = target: T2, Muscarinic acetylcholine receptor M2 (Rattus norvegicus, UniProt P10980)
T2 sequence (P10980 whole entry): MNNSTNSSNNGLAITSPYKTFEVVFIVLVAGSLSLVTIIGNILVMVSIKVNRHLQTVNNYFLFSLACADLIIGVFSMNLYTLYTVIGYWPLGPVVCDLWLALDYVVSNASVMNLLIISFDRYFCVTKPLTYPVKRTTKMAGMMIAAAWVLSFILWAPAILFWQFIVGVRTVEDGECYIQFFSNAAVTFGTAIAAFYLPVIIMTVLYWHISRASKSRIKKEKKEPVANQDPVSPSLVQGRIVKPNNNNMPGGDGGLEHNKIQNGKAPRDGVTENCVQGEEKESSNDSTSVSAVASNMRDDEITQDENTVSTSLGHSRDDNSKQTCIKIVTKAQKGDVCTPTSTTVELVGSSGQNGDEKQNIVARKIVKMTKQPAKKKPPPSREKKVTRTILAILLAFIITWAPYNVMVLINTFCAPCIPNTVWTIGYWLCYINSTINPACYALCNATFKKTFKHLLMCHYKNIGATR

[3] = target: T3, Muscarinic acetylcholine receptor M2 (Homo sapiens, UniProt P08172)
T3 sequence (P08172 whole entry): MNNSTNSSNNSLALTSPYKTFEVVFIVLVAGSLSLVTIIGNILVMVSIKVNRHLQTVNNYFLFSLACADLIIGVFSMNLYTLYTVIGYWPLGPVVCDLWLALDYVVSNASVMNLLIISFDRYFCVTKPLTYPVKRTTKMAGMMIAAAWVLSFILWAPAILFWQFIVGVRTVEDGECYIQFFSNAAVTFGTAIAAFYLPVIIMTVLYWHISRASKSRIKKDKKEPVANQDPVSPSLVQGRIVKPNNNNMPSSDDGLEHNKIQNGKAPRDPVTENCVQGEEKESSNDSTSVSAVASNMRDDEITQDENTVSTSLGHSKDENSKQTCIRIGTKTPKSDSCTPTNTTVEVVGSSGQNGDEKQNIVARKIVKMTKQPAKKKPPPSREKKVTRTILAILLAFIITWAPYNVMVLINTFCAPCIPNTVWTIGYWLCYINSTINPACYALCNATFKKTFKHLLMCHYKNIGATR

CN1CCN(CC(=O)N2c3ccccc3C(=O)Nc3cccnc32)CC1 [11-[(4-methylpiperazin-1-yl)acetyl]-5,11-dihydro-6H-pyrido[2,3-b][1,4]benzodiazepin-6-one]
Ki [1]: 0.0807 µM and 0.276 µM

CCN(CC)CC1CCCCN1CC(=O)N1c2ccccc2C(=O)Nc2cccnc21 (centres undefined) [(AF-DX 116) 11-[2-(2-Diethylaminomethyl-piperidin-1-yl)-acetyl]-5,11-dihydro-benzo[e]pyrido[3,2-b][1,4]diazepin-6-one]
Ki [2]: 0.0311 µM and 0.0269 µM
Ki [1]: 0.0288 µM and 0.0218 µM
Ki [3]: 0.0996 µM and 0.0174 µM
